Assay results as given in patent US10112941B2, “Tricyclic compounds as anticancer agents” (BRISTOL-MYERS SQUIBB COMPANY, priority 2013, dated 2018).

Molecular target: BRD4 (Homo sapiens, UniProt O60885)
Experiment: Time Resolved Fluorescence Resonance Energy Transfer (TR-FRET) binding assay, BRD4
Conditions: one of the FRET assays described; read-out: FRET BRD4 IC50

Compound	IC50 [nM]
Cc1nnn(C)c1-c1cnc2c3c(F)cc(C(C)(C)O)cc3n(C(c3cccc(F)c3)C3CCOCC3)c2c1 (single isomer, unassigned) [Example 113, 2-[3-(Dimethyl-1H-1,2,3-triazol-5-yl)-9-fluoro-5-[(3-fluorophenyl)(oxan-4-yl)methyl]-5H-pyrido[3,2-b]indol-7-yl]propan-2-ol]	< 1500
[2H]C([2H])([2H])c1nnn(C)c1-c1cnc2c3c(OC)ccc(S(C)(=O)=O)c3n([C@H](c3ccccc3)C3CCOCC3)c2c1 [Example 183, 5-{6-Methanesulfonyl-9-methoxy-5-[(S)-oxan-4-yl(phenyl)methyl]-5H-pyrido[3,2-b]indol-3-yl}-4-(^2H3)methyl-1-methyl-1H-1,2,3-triazole]	< 5
Cc1noc(C)c1-c1cnc2c3ccc(C(C)(C)O)cc3n([C@H](CCC(F)(F)F)c3ccccn3)c2c1 [Example 24]	< 1500
Cc1noc(C)c1-c1cnc2c3ccc(C(C)(C)O)cc3n(C(c3c(F)cccc3F)C3CCOCC3)c2c1 (single isomer, unassigned) [Example 144, 2-{5-[(2,6-Difluorophenyl)(oxan-4-yl)methyl]-3-(dimethyl-1,2-oxazol-4-yl)-5H-pyrido[3,2-b]indol-7-yl}propan-2-ol]	< 5
[2H]C([2H])([2H])c1nnn(C)c1-c1cnc2c3ccc(C(C)(C)O)cc3n(C(c3ncccc3C(F)(F)F)C3CCOCC3)c2c1 (single isomer, unassigned) [Example 319]	< 5
Cc1nnn(C)c1-c1cnc2c3cc(CCC(C)(C)O)ccc3n([C@H](c3ccccc3)C3CCOCC3)c2c1 [Example 153, 4-[3-(Dimethyl-1H-1,2,3-triazol-5-yl)-5-[(S)-oxan-4-yl(phenyl)methyl]-5H-pyrido[3,2-b]indol-8-yl]-2-methylbutan-2-ol]	< 5
Cc1nnn(C)c1-c1cnc2c3ccc(C(C)(C)O)cc3n([C@@H](c3ccccc3F)C3CCOCC3)c2c1 [Example 65]	< 5
Cc1noc(C)c1-c1cnc2c3ccc(C(C)(C)O)cc3n([C@H](c3ccccc3)C3CCC3)c2c1 [Example 13]	< 5
Cc1noc(C)c1-c1cnc2c3c(C(C)(C)O)cccc3n(Cc3ccccc3)c2c1 [Example 53, 2-[5-Benzyl-3-(dimethyl-1,2-oxazol-4-yl)-5H-pyrido[3,2-b]indol-9-yl]propan-2-ol]	< 1500
Cc1nnn(C)c1-c1cnc2c3ccc(C(=O)N4CC(F)C4)cc3n([C@H](c3ccccc3)C3CCOCC3)c2c1 [Example 413, 5-[7-(3-Fluoroazetidine-1-carbonyl)-5-[(S)-oxan-4-yl(phenyl)methyl]-5H-pyrido[3,2-b]indol-3-yl]-1,4-dimethyl-1H-1,2,3-triazole]	< 5
Cc1oncc1-c1cnc2c3ccc(C(C)(C)O)cc3n(C(c3ccc(F)cc3)C3CCOCC3)c2c1 (single isomer, unassigned) [Example 40, 2-{5-[(4-Fluorophenyl)(oxan-4-yl)methyl]-3-(5-methyl-1,2-oxazol-4-yl)-5H-pyrido[3,2-b]indol-7-yl}propan-2-ol]	< 25
Cc1nnn(C)c1-c1cnc2c3ccc(C(C)(C)N)cc3n(C(c3ccccc3)C3CCOCC3)c2c1 (single isomer, unassigned) [Example 166, 2-[3-(Dimethyl-1H-1,2,3-triazol-5-yl)-5-[oxan-4-yl(phenyl)methyl]-5H-pyrido[3,2-b]indol-7-yl]propan-2-amine]	< 5
Cc1noc(C)c1-c1cnc2c3ccc(C(C)(C)O)cc3n(C(c3ccccc3)c3cscn3)c2c1 (single isomer, unassigned) [Example 30, 2-[3-(Dimethyl-1,2-oxazol-4-yl)-5-[phenyl(1,3-thiazol-4-yl)methyl]-5H-pyrido[3,2-b]indol-7-yl]propan-2-ol]	< 5
Cc1noc(C)c1-c1cnc2c3ccc(C(=O)O)cc3n(C(c3ccccc3)c3ccccc3)c2c1 [Example 45, 3-(Dimethyl-1,2-oxazol-4-yl)-5-(diphenylmethyl)-5H-pyrido[3,2-b]indole-7-carboxylic acid]	< 5
[2H]C([2H])([2H])c1onc(C)c1-c1cnc2c3ccc(C(C)(C)O)cc3n(C([2H])(c3ccncc3F)C3CCOCC3)c2c1 (centres unmarked) [Example 343, 2-{5-[(3-Fluoropyridin-4-yl)(oxan-4-yl)(^2H)methyl]-3-[5-(^2H3)methyl-3-methyl-1,2-oxazol-4-yl]-5H-pyrido[3,2-b]indol-7-yl}propan-2-ol]	< 5
Cc1nnn(C)c1-c1cnc2c3c(S(C)(=O)=O)cccc3n(C(c3ccccc3F)C3CCOCC3)c2c1 (single isomer, unassigned) [Example 116, 5-{5-[(2-Fluorophenyl)(oxan-4-yl)methyl]-9-methanesulfonyl-5H-pyrido[3,2-b]indol-3-yl}-1,4-dimethyl-1H-1,2,3-triazole]	< 25
Cc1noc(C)c1-c1cnc2c3c(F)cc(C(C)(C)O)cc3n([C@H](c3ccccc3)C3CCOCC3)c2c1 [Example 370, 2-[3-(Dimethyl-1,2-oxazol-4-yl)-9-fluoro-5-[(S)-oxan-4-yl(phenyl)methyl]-5H-pyrido[3,2-b]indol-7-yl]propan-2-ol]	< 5
[2H]C([2H])([2H])c1nnn(C)c1-c1cnc2c3c(F)ccc(S(C)(=O)=O)c3n(C(c3ncccc3F)C3CCOCC3)c2c1 (centres unmarked) [Example 235, 3-Fluoro-2-({9-fluoro-6-methanesulfonyl-3-[4-(^2H3)methyl-1-methyl-1H-1,2,3-triazol-5-yl]-5H-pyrido[3,2-b]indol-5-yl}(oxan-4-yl)methyl)pyridine]	< 5
Cc1nnn(C)c1-c1cnc2c3ccc(CS(C)(=O)=O)cc3n([C@@H](c3ncccc3Cl)C3CCOCC3)c2c1 [Example 340]	< 5
COc1nnn(C)c1-c1cnc2c3ccc(C(C)(C)O)cc3n([C@H](c3ccccc3)C3CCOCC3)c2c1 [Example 379, 2-[3-(4-Methoxy-1-Methyl-1H-1,2,3-triazol-5-yl)-5-[(S)-oxan-4-yl(phenyl)methyl]-5H-pyrido[3,2-b]indol-7-yl]propan-2-ol]	< 5
Cc1nnn(C)c1-c1cnc2c3c(S(C)(=O)=O)cc(F)c(F)c3n([C@H](c3ccccc3)C3CCOCC3)c2c1 [Example 160, 5-{6,7-Difluoro-9-methanesulfonyl-5-[(S)-oxan-4-yl(phenyl)methyl]-5H-pyrido[3,2-b]indol-3-yl}-1,4-dimethyl-1H-1,2,3-triazole]	< 5
Cc1nnn(C)c1-c1cnc2c3ccc(C(C)(C)O)cc3n([C@@H](CCC(F)(F)F)c3ccccc3)c2c1 [Example 57]	< 5
Cc1nnn(C)c1-c1cnc2c3cc(CC(C)(C)O)ccc3n([C@H](c3ccccc3)C3CCOCC3)c2c1 [Example 255, 1-[3-(Dimethyl-1H-1,2,3-triazol-5-yl)-5-[(S)-oxan-4-yl(phenyl)methyl]-5H-pyrido[3,2-b]indol-8-yl]-2-methylpropan-2-ol]	< 5
Cc1nnn(C)c1-c1cnc2c3cc(F)c(C(C)(O)C4CC4)c(F)c3n([C@H](c3ccccc3)C3CCOCC3)c2c1 (single isomer, unassigned) [Example 449]	< 5
Cc1nnn(C)c1-c1cnc2c3ccc(C(C)(C)O)cc3n([C@H](c3ccccc3)C3CCOCC3)c2c1 (single isomer, unassigned) [Example 54]	< 5
Cc1noc(C)c1-c1cnc2c3ccc(C(C)(C)O)cc3n(Cc3ccccc3)c2c1 [Example 46, 2-[5-Benzyl-3-(dimethyl-1,2-oxazol-4-yl)-5H-pyrido[3,2-b]indol-7-yl]propan-2-ol]	< 1500
